Results published in the supplement of paper PMC11451515.

Tests used:
Details in all cases: 48 h
NOMO1 [1] = experiment: cell viability relative to DMSO control; higher = less cytotoxic
In short: (§1)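 Viability is a per-plate percentage relative to DMSO wells, with cell-free wells as background. CellTiter-Glo One luminescence was read after 48 h at 37°C on 1536-well plates (5 μl) of NOMO1 or SEM (500 cells/well) or P12-Ichikawa (1000 cells/well) leukemia cells. The cells had been adapted for at least four passages in each medium and pin-dosed with library compounds in DMSO from 47 μM to 0.79 nM in 11 threefold steps.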

P12-Ichikawa [2] = experiment: as above
In short: as §1

SEM cells [3] = experiment: as above
In short: as §1

NOMO1 [4] = experiment: AUC of viability dose-response curve (% viability x log10 dose units); higher = less sensitive
In short: (§2)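 In 1536-well plates, leukemia cells adapted to each medium (500 or 1000 cells/well) were exposed for 48 h at 37°C to library compounds in DMSO across 11 threefold doses, 47 μM down to 0.79 nM. Viability was read by CellTiter-Glo One luminescence and normalised per plate to DMSO and cell-free wells. A four-parameter log-logistic fit over log10 doses was integrated by trapezoidal rule. This yielded the area under the curve, with over-full-viability curves scaled and quality-control failures dropped.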

P12-Ichikawa [5] = experiment: as above
In short: as §2

SEM cells [6] = experiment: as above
In short: as §2

CCOc1cc2ncc(C#N)c(Nc3ccc(OCc4ccccn4)c(Cl)c3)c2cc1NC(=O)/C=C/CN(C)C
cell viability [%]
Details	NOMO1 [1]	P12-Ichikawa [2]	SEM cells [3]
HPLM + 10% dialyzed FBS, 0.000781 µM	–	116	109
HPLM + 10% dialyzed FBS, 0.00234 µM	–	124	122
HPLM + 10% dialyzed FBS, 0.00702 µM	–	122	126
HPLM + 10% dialyzed FBS, 0.0211 µM	–	115	122
HPLM + 10% dialyzed FBS, 0.0632 µM	–	117	111
HPLM + 10% dialyzed FBS, 0.19 µM	–	115	107
HPLM + 10% dialyzed FBS, 0.569 µM	–	62.5	19.4
HPLM + 10% dialyzed FBS, 1.71 µM	–	6.67	9.21
HPLM + 10% dialyzed FBS, 5.12 µM	–	4.65	7.03
HPLM + 10% dialyzed FBS, 15.4 µM	–	4.41	6.73
HPLM + 10% dialyzed FBS, 46.1 µM	–	3.56	4.72
RPMI 5 mM glucose + 10% FBS, 0.000781 µM	119	111	87
RPMI 5 mM glucose + 10% FBS, 0.00234 µM	109	125	95.4
RPMI 5 mM glucose + 10% FBS, 0.00702 µM	114	120	83.4
RPMI 5 mM glucose + 10% FBS, 0.0211 µM	105	118	80.8
RPMI 5 mM glucose + 10% FBS, 0.0632 µM	112	120	79.7
RPMI 5 mM glucose + 10% FBS, 0.19 µM	124	121	31.9
RPMI 5 mM glucose + 10% FBS, 0.569 µM	49.7	121	7.35
RPMI 5 mM glucose + 10% FBS, 1.71 µM	20.8	11.3	5.75
RPMI 5 mM glucose + 10% FBS, 5.12 µM	13.6	6.84	5.48
RPMI 5 mM glucose + 10% FBS, 15.4 µM	11.2	5.28	4.73
RPMI 5 mM glucose + 10% FBS, 46.1 µM	8.95	5.4	3.12
RPMI 5 mM glucose + 10% dialyzed FBS, 0.000781 µM	116	119	119
RPMI 5 mM glucose + 10% dialyzed FBS, 0.00234 µM	111	130	133
RPMI 5 mM glucose + 10% dialyzed FBS, 0.00702 µM	103	121	117
RPMI 5 mM glucose + 10% dialyzed FBS, 0.0211 µM	109	122	116
RPMI 5 mM glucose + 10% dialyzed FBS, 0.0632 µM	117	119	121
RPMI 5 mM glucose + 10% dialyzed FBS, 0.19 µM	113	118	95.9
RPMI 5 mM glucose + 10% dialyzed FBS, 0.569 µM	83.9	122	16.9
RPMI 5 mM glucose + 10% dialyzed FBS, 1.71 µM	36.2	13.5	8.13
RPMI 5 mM glucose + 10% dialyzed FBS, 5.12 µM	18.3	7.04	6.73
RPMI 5 mM glucose + 10% dialyzed FBS, 15.4 µM	13	5.08	6.47
RPMI 5 mM glucose + 10% dialyzed FBS, 46.1 µM	11.5	4.99	4.68

AUC of viability dose-response curve
Details	NOMO1 [4]	P12-Ichikawa [5]	SEM cells [6]
HPLM + 10% dialyzed FBS	279	293	276
RPMI 5 mM glucose + 10% FBS	303	320	209
RPMI 5 mM glucose + 10% dialyzed FBS	328	321	268

Cc1ccc([N+](=O)[O-])cc1[S+](=O)([O-])N(C)/N=C/c1cnc2ccc(Br)cn12
cell viability [%]
Details	NOMO1 [1]	P12-Ichikawa [2]	SEM cells [3]
HPLM + 10% dialyzed FBS, 0.000781 µM	110	120	106
HPLM + 10% dialyzed FBS, 0.00234 µM	116	110	118
HPLM + 10% dialyzed FBS, 0.00702 µM	107	113	96.1
HPLM + 10% dialyzed FBS, 0.0211 µM	89.8	118	75.7
HPLM + 10% dialyzed FBS, 0.0632 µM	56.5	108	74.5
HPLM + 10% dialyzed FBS, 0.19 µM	12	50.1	13.9
HPLM + 10% dialyzed FBS, 0.569 µM	6.54	20.2	8.58
HPLM + 10% dialyzed FBS, 1.71 µM	5.77	7.63	5.5
HPLM + 10% dialyzed FBS, 5.12 µM	4.83	9.25	5.52
HPLM + 10% dialyzed FBS, 15.4 µM	4.05	9.2	4.94
HPLM + 10% dialyzed FBS, 46.1 µM	3.68	4.27	4.47
RPMI 5 mM glucose + 10% FBS, 0.000781 µM	121	114	–
RPMI 5 mM glucose + 10% FBS, 0.00234 µM	105	106	–
RPMI 5 mM glucose + 10% FBS, 0.00702 µM	95.9	112	–
RPMI 5 mM glucose + 10% FBS, 0.0211 µM	98.7	113	–
RPMI 5 mM glucose + 10% FBS, 0.0632 µM	84.6	95.6	–
RPMI 5 mM glucose + 10% FBS, 0.19 µM	17.3	40.9	–
RPMI 5 mM glucose + 10% FBS, 0.569 µM	7.83	15.2	–
RPMI 5 mM glucose + 10% FBS, 1.71 µM	5.79	5.49	–
RPMI 5 mM glucose + 10% FBS, 5.12 µM	5.05	6.55	–
RPMI 5 mM glucose + 10% FBS, 15.4 µM	4.32	8.88	–
RPMI 5 mM glucose + 10% FBS, 46.1 µM	4.08	3.76	–
RPMI 5 mM glucose + 10% dialyzed FBS, 0.000781 µM	102	119	112
RPMI 5 mM glucose + 10% dialyzed FBS, 0.00234 µM	93.9	122	99.8
RPMI 5 mM glucose + 10% dialyzed FBS, 0.00702 µM	100	111	92.9
RPMI 5 mM glucose + 10% dialyzed FBS, 0.0211 µM	94.2	115	95.3
RPMI 5 mM glucose + 10% dialyzed FBS, 0.0632 µM	76.1	91.3	77.1
RPMI 5 mM glucose + 10% dialyzed FBS, 0.19 µM	19.2	51	19.8
RPMI 5 mM glucose + 10% dialyzed FBS, 0.569 µM	5.29	24.6	6.67
RPMI 5 mM glucose + 10% dialyzed FBS, 1.71 µM	4.54	9.55	5.43
RPMI 5 mM glucose + 10% dialyzed FBS, 5.12 µM	4.24	10.3	4.76
RPMI 5 mM glucose + 10% dialyzed FBS, 15.4 µM	4	12.4	4.76
RPMI 5 mM glucose + 10% dialyzed FBS, 46.1 µM	2.94	5.41	3.83

AUC of viability dose-response curve
Details	NOMO1 [4]	P12-Ichikawa [5]	SEM cells [6]
HPLM + 10% dialyzed FBS	196	250	203
RPMI 5 mM glucose + 10% FBS	223	240	207
RPMI 5 mM glucose + 10% dialyzed FBS	217	244	222

O=C(CC12CC3CC(CC(C3)C1)C2)Nc1cccc2nc(NCCNCCO)ccc12
cell viability [%]
Details	NOMO1 [1]	P12-Ichikawa [2]	SEM cells [3]
HPLM + 10% dialyzed FBS, 0.000781 µM	79.1	87.7	81.1
HPLM + 10% dialyzed FBS, 0.00234 µM	95.5	88.7	82.1
HPLM + 10% dialyzed FBS, 0.00702 µM	89.4	84.5	73.8
HPLM + 10% dialyzed FBS, 0.0211 µM	106	90.8	96.5
HPLM + 10% dialyzed FBS, 0.0632 µM	98	88.1	78.2
HPLM + 10% dialyzed FBS, 0.19 µM	90.7	91.2	77.8
HPLM + 10% dialyzed FBS, 0.569 µM	101	98.2	93.8
HPLM + 10% dialyzed FBS, 1.71 µM	89.8	88.1	64.1
HPLM + 10% dialyzed FBS, 5.12 µM	103	95.7	84.6
HPLM + 10% dialyzed FBS, 15.4 µM	90.7	92	101
HPLM + 10% dialyzed FBS, 46.1 µM	36.6	56.7	36.3
RPMI 5 mM glucose + 10% FBS, 0.000781 µM	81.2	84.7	90.5
RPMI 5 mM glucose + 10% FBS, 0.00234 µM	89.8	87.2	99.3
RPMI 5 mM glucose + 10% FBS, 0.00702 µM	83.9	85.6	83.6
RPMI 5 mM glucose + 10% FBS, 0.0211 µM	87.8	89.4	96.3
RPMI 5 mM glucose + 10% FBS, 0.0632 µM	82.4	88.8	75.6
RPMI 5 mM glucose + 10% FBS, 0.19 µM	90.5	86.3	76.1
RPMI 5 mM glucose + 10% FBS, 0.569 µM	81	87.4	94.4
RPMI 5 mM glucose + 10% FBS, 1.71 µM	87.4	81.9	83.3
RPMI 5 mM glucose + 10% FBS, 5.12 µM	86.4	89.2	82.7
RPMI 5 mM glucose + 10% FBS, 15.4 µM	96.4	94.1	101
RPMI 5 mM glucose + 10% FBS, 46.1 µM	54.1	57.6	21.9
RPMI 5 mM glucose + 10% dialyzed FBS, 0.000781 µM	73.5	82	82.8
RPMI 5 mM glucose + 10% dialyzed FBS, 0.00234 µM	90.7	86.6	87.7
RPMI 5 mM glucose + 10% dialyzed FBS, 0.00702 µM	83.2	85.7	65.3
RPMI 5 mM glucose + 10% dialyzed FBS, 0.0211 µM	97.2	99.4	94.8
RPMI 5 mM glucose + 10% dialyzed FBS, 0.0632 µM	86.7	91.4	81.6
RPMI 5 mM glucose + 10% dialyzed FBS, 0.19 µM	80.5	94.8	72.5
RPMI 5 mM glucose + 10% dialyzed FBS, 0.569 µM	82.4	90.3	102
RPMI 5 mM glucose + 10% dialyzed FBS, 1.71 µM	82.3	85.8	78.7
RPMI 5 mM glucose + 10% dialyzed FBS, 5.12 µM	77.4	77.6	94.6
RPMI 5 mM glucose + 10% dialyzed FBS, 15.4 µM	95.3	93.8	82.6
RPMI 5 mM glucose + 10% dialyzed FBS, 46.1 µM	57.7	42.4	40

AUC of viability dose-response curve
Details	NOMO1 [4]	P12-Ichikawa [5]	SEM cells [6]
HPLM + 10% dialyzed FBS	436	424	386
RPMI 5 mM glucose + 10% FBS	406	410	405
RPMI 5 mM glucose + 10% dialyzed FBS	399	412	392
